According to patent US5514662A, “Use of amphotericin B derivatives as protease inhibitors” (priority 1991, dated 1996):

Experiments:
Jurkat cells = experiment: Cell viability of Jurkat cells; assay type: cell-based, human; details: concentrations above 100 μM
Source text: (§1) Cell viability was estimated at the same time. […] It therefore appears that DABF-AmB inhibits the replication of HIV at doses which are not cytotoxic.

HeLa-Ohio cells = experiment: Cytotoxicity in HeLa-Ohio cells; assay type: cell-based, human; details: 20 μM for 4 weeks
PBMCs = experiment: Cytotoxicity on PBMCs; assay type: cell-based, human; details: concentrations up to 10^-3 M
leucocyte elastase = experiment: Activity of DABF-AmB on various proteases: leucocyte elastase; assay type: biochemical; details: 1 μM
Method: (§2) DABF-AmB was tested, at a concentration of 1 μM, on various proteases (papain, chymotrypsin, kallicrein, leucocyte elastase, cathopsin D and recombinant protease p10) under conditions and in the presence of substrates appropriate for each of the proteases tested.

AZT-resistant strains = experiment: Infection of PBMCs by AZT-resistant HIV-1; assay type: cell-based; details: 10 μM, RT activity after 10 days
Method: (§3) PBMCs were infected under the conditions described above in the general procedures, with various HIV-1 isolates derived from patients, or identified as resistant to AZT. The anti-viral effect of DABF-AmB was determined by measuring the RT activity in the supernatants after 10 days of culture.

CD4 = experiment: Membrane expression of CD4 in HIV-1 infected Jurkat and CEM cells; assay type: cell-based, human; details: 10 μM continuous, 8th day
Method: Membrane expression of CD4 and gp120 is measured by means of the monoclonal antibodies OKT4 (0,5 μg/ml), 110-4 (2 μg/ml) respectively, which are stained using a […].
The fluorescence is measured by means of a FACSTAR cell counter (BECTON DICKINSON, MOUNTAIN VIEW, Calif.). The results are expressed as mean fluorescence intensity.
The CD4-specific monoclonal antibody (OKT4 was bought from ORTHO PHARMACEUTICAL CORPORATION (Raritan, N.J.).
Immunofluorescence analyses are carried out on the 8th day of the infection in order to verify whether the inhibition of HIV replication by DABF-AmB results in 10 a reduced membrane expression of viral antigens.

[1] = tested on: HIV-1 isolates derived from patients; experiment: Infection of PBMCs by HIV-1 isolates derived from patients; assay type: cell-based; details: 10 μM, 10 viral strains derived from patients, RT activity after 10 days
Method: as §3

CEM cells = experiment: Cell viability of CEM cells; assay type: cell-based, human; details: concentrations above 100 μM
Source text: as §1

HRV14 = experiment: Direct virucidal effect on HRV14 (preincubation of virus); assay type: cell-based; details: HRV14 preincubated 5 hours at 37° C.
Method: When the suspension of HRV14 is preincubated at 37° C. in the presence of DABF-AmB for 5 hours, no inhibition of the cytopathogenic effect is observed compared with a control suspension incubated under the same conditions in the absence of DABF-AmB.

papain = papain (Carica papaya, UniProt P00784); experiment: Activity of DABF-AmB on various proteases: papain; assay type: biochemical; details: 1 μM
Method: as §2

viral antigen p24 = experiment: Secretion of p24 in HIV-1 infected PBMCs; assay type: cell-based; details: Human immunodeficiency virus 1, PBMC, read-out: inhibition of synthesis of p24
Method: (§4) The T cells (Jurkat and CEM) used are very permissive to HIV infection. They are cultured in RPMI 1640 medium supplemented with 10% foetal calf serum, 2 mM of glutamine and a mixture of penicillin and streptomycin. The peripheral blood mononuclear cells are obtained from blood from healthy donors, isolated on a Ficoll Hypaque gradient and stimulated with 10 μg/ml of phytohaemagglutinin A (PHA), for two days, in RPMI 1640 medium supplemented, prior to the infection by HIV, with amikacin and vancomycin (10 mg/ml), polybrene (1 mg/ml) and anti-interferon gamma serum (5 U/ml). After infection, the PBMCs are cultured (10^5 per well) in flat-bottomed 96-well plates in the same RPMI 1640 medium (200 μl per well).
The PBMCs cells (2×10^6 /ml) are infected with the same viruses and under the same conditions as the Jurkat or CEM cells. […]
The viral antigen p24 was quantified in the infected-cell supernatant by radioimmunological assay using the procedure recommended by the manufacturer (ABBOTT, Diagnostics Division).
PBMCs isolated from healthy individuals are infected with HIV-1. The production of antigen p24 as well as the reverse transcriptase activity can be detected in the supernatants of cultures infected 3 days after the infection. […]
(§5) The effect of DABF-AmB on the reverse transcriptase activity and on the secretion of p24 is evaluated on the 6th day.

HIV LAV/BRU = experiment: Protection of CD4 cells in cultures of HIV-infected human thymocytes; assay type: cell-based, HIV-1
Method: Human thymuses were obtained during corrective heart surgery operations on 3 to 7 year old children. The tissues were cut into fragments and the red blood cells were removed by treating with […] buffer. After washing in PBS buffer, cellular suspensions were prepared in an RPMI 1640 medium containing 10% of human serum type […]. Dead cells were removed by passing over a sterile nylon wool column.
The cells were infected with HIV LAV/BRU as indicated above in the general procedures, and then re-inoculated in the presence of PHA, of anti-CD2 or anti-CD3 antibodies and of IL2 and cultured for 10 days at a rate of 1×10^7 cells/ml. After 10 days, viral production was evaluated by measuring the RT activity in the supernatants and the distribution of CD4/CD8 was evaluated by double fluorescence flow cytometry by means of FITC-labelled anti-CD4 antibodies (OKT4) and phycoerythrin-labelled anti-CD8 antibodies (OKT8). DABF-AmB was added to the cultures immediately after infection and maintained during the entire duration of the culture.

HIV-1 = experiment: Reverse transcriptase activity in HIV-1 infected PBMCs; assay type: cell-based
Method: as §4
The PBMCs cells (2×10^6 /ml) are infected with the same viruses and under the same conditions as the Jurkat or CEM cells. They are then washed and resuspended in fresh culture medium in flat-bottomed 96-well plates (10^5 cells per well in […]).
The reverse transcriptase activity is determined at the indicated times using the culture supernatant, according to the procedure described by REY et al., Biochem. Res. Comm. 121, 126-133 (1984).
PBMCs isolated from healthy individuals are infected with HIV-1. The production of antigen p24 as well as the reverse transcriptase activity can be detected in the supernatants of cultures infected 3 days after the infection. The maximum reverse transcriptase activity and p24 synthesis are observed between the 6th and 7th day, and the 5th and 6th day respectively. No cell death is observed at this time.
The infected PBMCs are treated continuously as described above for the Jurkat and CEM cells, using increasing concentrations of DABF-AmB.
as §5

Chain of papain (P00784 134-345): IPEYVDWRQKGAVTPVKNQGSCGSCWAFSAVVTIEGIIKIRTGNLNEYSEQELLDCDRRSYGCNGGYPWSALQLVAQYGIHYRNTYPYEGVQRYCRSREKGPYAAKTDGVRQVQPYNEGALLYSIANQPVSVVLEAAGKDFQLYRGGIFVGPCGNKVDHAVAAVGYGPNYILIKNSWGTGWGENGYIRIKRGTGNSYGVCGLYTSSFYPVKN

C[C@@H]1[C@H](O)[C@@H](C)/C=C/C=C/C=C/C=C/C=C/C=C/C=C/[C@H](O[C@@H]2O[C@H](C)[C@@H](O)[C@H](NCC(=O)[C@@H](O)[C@@H]3OC(c4ccccc4)OC[C@H]3O)[C@@H]2O)C[C@@H]2O[C@](O)(C[C@@H](O)C[C@@H](O)[C@H](O)CC[C@@H](O)C[C@@H](O)CC(=O)O[C@H]1C)C[C@H](O)[C@H]2C(=O)O (stereo partly drawn) [DABF-AmB, 1-deoxy-1-amino-4,6-O-benzylidene-D-fructosyl-AmB]
cytotoxic effect (Jurkat cells): no cytotoxic effect
cytotoxic effect (HeLa-Ohio cells): no cytotoxic effect
cytotoxic effect on PBMCs (PBMCs): without cytotoxic effect
inhibition of leucocyte elastase (leucocyte elastase): inhibits
inhibition of infection of PBMC (AZT-resistant strains): this inhibition is also produced in the case of AZT-resistant strains
level of the membrane antigen CD4 (CD4): increases until it reaches that for the uninfected cells
inhibition of infection of PBMC [1]: substantially reducing, or even completely inhibiting
cytotoxic effect (CEM cells): no cytotoxic effect
inhibition of the cytopathogenic effect after preincubation of virus (direct virucidal effect) (HRV14): no direct virucidal effect
inhibition of papain (papain): does not inhibit
inhibition at 10 µM (viral antigen p24): 88 ± 6%
RT activity in the supernatants of infected thymocytes (HIV LAV/BRU; 10 days): decrease in RT activity
CD4+ cells in infected thymocyte cultures (HIV LAV/BRU; in proportion to the concentration): preservation or the reappearance of CD4+ cells
infection of CD4+ thymocytes and distribution of subpopulations of thymic cells (HIV LAV/BRU; infected cultures): inhibits the infection of CD4+ thermocytes by HIV and restores a normal distribution of the subpopulations of thymic cells
inhibition at 10 µM (HIV-1; Human immunodeficiency virus 1, PBMC, 144 h, PBMCs, 10 μM, 6th day, N=3): 92 ± 4%
increase in the anti-HIV action in PBMCs (HIV-1; concentrations above 20 μM): do not bring about a significant increase
anti-HIV inhibition in PBMCs (in words) (HIV-1; concentrations below 1 μM): only a low inhibition
